Measured values taken from ChEMBL document CHEMBL3046147, “Synthesis and Herbicidal Activity of 1-Arylalkyl-3-pyrrolin-2-one Derivatives” (J Pestic Sci, 2000).

What was measured:
[1] = tested on: Echinochloa oryzicola; test: Pre-emergence herbicide activity against Echinochloa oryzicola under greenhouse condition measured after 14 to 20 days; assay type: functional
[2] = tested on: Oryza sativa; test: Phytotoxicity against two-leaf stage Oryza sativa cv. Nihonbare (rice) planted 1 cm depth measured after […]; assay type: organism-based; settings: in vivo
[3] = tested on: Oryza sativa; test: Phytotoxicity against two-leaf stage Oryza sativa cv. Nihonbare (rice) planted 3 cm depth measured after […]; assay type: organism-based; settings: in vivo
[4] = tested on: Sagittaria pygmaea; test: Herbicide activity against Sagittaria pygmaea under greenhouse condition compound treated at 0.5 leaf-stage measured after 14 to 20 days; assay type: functional
[5] = tested on: Schoenoplectiella juncoides; test: Herbicide activity against Schoenoplectiella juncoides under greenhouse condition compound treated at emergence-stage measured after 14 to 20 days; assay type: functional
[6] = tested on: Echinochloa oryzicola; test: Herbicide activity against Echinochloa oryzicola under greenhouse condition compound treated at 2 leaf-stage measured after 14 to 20 days; assay type: functional

SMILES	MED [1]	MTD [2]	MTD [3]	MED [4]	MED [5]	MED [6]
CC1=C(c2ccccc2)C(=O)N(C(C)(C)c2nc(C(C)(C)C)cs2)C1	5 g/acre	5 g/acre	10 g/acre	80 g/acre	80 g/acre	5 g/acre
CC1=C(c2cccc(F)c2)C(=O)N(C(C)(C)c2nc3ccccc3s2)C1	5 g/acre	5 g/acre	20 g/acre	40 g/acre	40 g/acre	5 g/acre
CC(=O)OC1=C(c2ccccc2)C(=O)N(C(C)(C)c2nc3ccccc3s2)C1	80 g/acre	< 20 g/acre	< 20 g/acre	80 g/acre	80 g/acre	<5 g/acre
COc1ccc(C2=C(C)CN(C(C)(C)c3nc4ccccc4s3)C2=O)cc1	20 g/acre	10 g/acre	40 g/acre	80 g/acre	80 g/acre	<5 g/acre
CC1=C(c2ccccc2)C(=O)N(C(C)(C)c2nc3cccc(Cl)c3s2)C1	0.156 g/acre	10 g/acre	20 g/acre	80 g/acre	40 g/acre	<5 g/acre
CC1=C(c2ccccc2)C(=O)N(C(C)(C)c2nc3ccc(I)cc3s2)C1	5 g/acre	20 g/acre	10 g/acre	20 g/acre	20 g/acre	<5 g/acre
CC1=C(c2cccc(C(F)(F)F)c2)C(=O)N(C(C)(C)c2nc3ccccc3s2)C1	80 g/acre	20 g/acre	20 g/acre	160 g/acre	160 g/acre	<5 g/acre
CC1=C(c2ccccc2)C(=O)N(C(C)(C)c2ccsc2)C1	5 g/acre	20 g/acre	40 g/acre	20 g/acre	5 g/acre	<10 g/acre
CC1=C(c2ccccc2)C(=O)N(C(C)(C)c2nc3cc(C#N)ccc3s2)C1	5 g/acre	40 g/acre	10 g/acre	40 g/acre	20 g/acre	<5 g/acre
CC1=C(c2ccccc2)C(=O)N(C(C)(C)c2csc3ccccc23)C1	2.5 g/acre	2.5 g/acre	10 g/acre	80 g/acre	80 g/acre	<5 g/acre
CC1=C(c2ccccc2)C(=O)N(C(C)(C)c2ncc(C(F)(F)F)cc2Cl)C1	<5 g/acre	5 g/acre	20 g/acre	80 g/acre	80 g/acre	<5 g/acre
CC1=C(c2ccccc2)C(=O)N(C(C)(C)c2nc3cccnc3s2)C1	0.313 g/acre	> 0.313 g/acre	0.313 g/acre	5 g/acre	2.5 g/acre	2.5 g/acre
